Results as given in patent US8383817B2, “Benztropine compounds and uses thereof” (The United States of America, as represented by the …, priority 2005, dated 2013).
Like-named read-outs stand apart in the source and are kept apart here.

Columns and labels:
SERT [1] = target: T1, SERT (Rattus norvegicus, UniProt P31652); assay: [3H]Citalopram Binding Assay, rat midbrain membranes; conditions: for Ki: rat brain membranes, read-out: SERT [3H]citalopram Ki ± SEM
T1 construct: Membranes from frozen rat midbrain were homogenized; from tissue; host or cells: rat midbrain membranes
T1 sequence (P31652 whole entry): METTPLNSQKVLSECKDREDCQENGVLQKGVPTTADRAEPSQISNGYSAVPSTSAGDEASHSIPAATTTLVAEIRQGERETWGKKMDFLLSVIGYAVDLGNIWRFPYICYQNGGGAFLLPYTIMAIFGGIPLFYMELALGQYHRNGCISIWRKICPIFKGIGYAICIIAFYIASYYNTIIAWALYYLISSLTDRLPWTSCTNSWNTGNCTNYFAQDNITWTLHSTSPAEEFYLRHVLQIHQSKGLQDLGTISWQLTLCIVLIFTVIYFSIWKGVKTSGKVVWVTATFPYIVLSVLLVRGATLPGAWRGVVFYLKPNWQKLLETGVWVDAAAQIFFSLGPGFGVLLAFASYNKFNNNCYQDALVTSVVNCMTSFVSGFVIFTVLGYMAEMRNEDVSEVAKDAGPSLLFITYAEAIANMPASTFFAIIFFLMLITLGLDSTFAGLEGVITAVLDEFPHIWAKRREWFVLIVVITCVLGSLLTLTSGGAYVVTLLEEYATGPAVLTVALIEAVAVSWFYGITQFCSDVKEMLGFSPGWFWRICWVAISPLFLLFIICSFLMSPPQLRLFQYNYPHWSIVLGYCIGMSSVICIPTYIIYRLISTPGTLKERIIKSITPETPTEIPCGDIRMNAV

muscarinic M1 receptor [2] = target: T2, muscarinic M1 receptor (Rattus norvegicus, UniProt P08482); assay: [3H]Pirenzepine Binding Assay, rat brain membranes
T2 construct: Membranes from frozen rat brains excluding cerebellum were thawed; from tissue; host or cells: rat brain (excluding cerebellum) membranes
T2 sequence (P08482 1-460): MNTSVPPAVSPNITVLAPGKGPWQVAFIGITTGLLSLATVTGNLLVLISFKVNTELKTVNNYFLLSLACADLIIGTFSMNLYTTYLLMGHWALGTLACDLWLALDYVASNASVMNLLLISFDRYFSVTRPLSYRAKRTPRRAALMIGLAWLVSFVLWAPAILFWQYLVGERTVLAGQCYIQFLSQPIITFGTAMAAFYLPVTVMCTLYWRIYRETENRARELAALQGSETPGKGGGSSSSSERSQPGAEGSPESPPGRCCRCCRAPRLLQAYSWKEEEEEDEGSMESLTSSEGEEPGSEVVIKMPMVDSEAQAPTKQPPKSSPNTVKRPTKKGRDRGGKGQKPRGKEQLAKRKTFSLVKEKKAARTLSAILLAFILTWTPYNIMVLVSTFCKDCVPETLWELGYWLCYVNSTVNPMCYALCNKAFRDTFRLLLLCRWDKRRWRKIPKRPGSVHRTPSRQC

muscarinic M1 receptor [3] = target: T2, muscarinic M1 receptor; conditions: read-out: M1 [3H]pirenzepine Ki ± SEM, cited from earlier work
[4] = Model For Reducing Effect of Nicotine (nicotine discrimination); assay type: in vivo, rat; conditions: rats; dose 3.0 mg/kg; nicotine only control 50%
Source text: Model For Reducing Effect of Nicotine. Food-deprived rats were trained to press one lever for a food pellet after nicotine administration and a second lever after vehicle administration. Pellets of food were delivered intermittently, so that every twentieth response produced food. Using this procedure, the only cue for the rat regarding which lever occasionally pays off with a food pellet, is the subjective effect of the nicotine. When the rats were accurately and reliably identifying the nicotine injections (approximately all of its responses on the lever that occasionally pays off after nicotine or saline), testing began. The rats were pretreated with a compound of Formula III before nicotine injection, and the experiment progressed as described above, except responses on either lever intermittently produced food. A 50% effective nicotine dose was reduced to low levels of effectiveness upon administration of a compound of Formula III.

SERT [5] = target: T1, SERT; conditions: read-out: SERT [3H]citalopram Ki ± SEM, cited from earlier work
NET [6] = target: T3, NET (Rattus norvegicus, UniProt Q63380); conditions: read-out: NET [3H]nisoxetine Ki ± SEM; comparative data taken from Agoston et al. 1997; cited from earlier work
T3 sequence (Q63380 1-617): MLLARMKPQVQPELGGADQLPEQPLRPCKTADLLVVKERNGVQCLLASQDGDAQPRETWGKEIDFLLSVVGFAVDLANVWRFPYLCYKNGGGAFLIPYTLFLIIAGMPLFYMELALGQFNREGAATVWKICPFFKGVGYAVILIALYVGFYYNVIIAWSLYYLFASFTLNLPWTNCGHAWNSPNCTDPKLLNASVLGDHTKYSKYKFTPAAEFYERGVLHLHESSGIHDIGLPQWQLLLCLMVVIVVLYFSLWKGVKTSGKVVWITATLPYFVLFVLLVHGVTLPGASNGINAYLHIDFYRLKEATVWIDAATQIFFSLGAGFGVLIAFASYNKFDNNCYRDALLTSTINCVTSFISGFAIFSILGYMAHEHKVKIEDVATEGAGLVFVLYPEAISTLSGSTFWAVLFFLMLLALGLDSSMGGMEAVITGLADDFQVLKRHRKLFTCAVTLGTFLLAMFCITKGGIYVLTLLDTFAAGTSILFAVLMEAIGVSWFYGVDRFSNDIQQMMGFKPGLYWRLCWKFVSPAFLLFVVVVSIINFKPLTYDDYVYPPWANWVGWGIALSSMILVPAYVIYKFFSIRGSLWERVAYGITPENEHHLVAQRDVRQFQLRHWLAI

NET [7] = assay type: binding, rat
DAT [8] = target: T4, DAT (Rattus norvegicus, UniProt P23977)
T4 construct: their brains removed to an ice-cooled dish for dissection of the caudate putamen; from tissue; host or cells: rat caudate putamen homogenate
T4 sequence (P23977 whole entry): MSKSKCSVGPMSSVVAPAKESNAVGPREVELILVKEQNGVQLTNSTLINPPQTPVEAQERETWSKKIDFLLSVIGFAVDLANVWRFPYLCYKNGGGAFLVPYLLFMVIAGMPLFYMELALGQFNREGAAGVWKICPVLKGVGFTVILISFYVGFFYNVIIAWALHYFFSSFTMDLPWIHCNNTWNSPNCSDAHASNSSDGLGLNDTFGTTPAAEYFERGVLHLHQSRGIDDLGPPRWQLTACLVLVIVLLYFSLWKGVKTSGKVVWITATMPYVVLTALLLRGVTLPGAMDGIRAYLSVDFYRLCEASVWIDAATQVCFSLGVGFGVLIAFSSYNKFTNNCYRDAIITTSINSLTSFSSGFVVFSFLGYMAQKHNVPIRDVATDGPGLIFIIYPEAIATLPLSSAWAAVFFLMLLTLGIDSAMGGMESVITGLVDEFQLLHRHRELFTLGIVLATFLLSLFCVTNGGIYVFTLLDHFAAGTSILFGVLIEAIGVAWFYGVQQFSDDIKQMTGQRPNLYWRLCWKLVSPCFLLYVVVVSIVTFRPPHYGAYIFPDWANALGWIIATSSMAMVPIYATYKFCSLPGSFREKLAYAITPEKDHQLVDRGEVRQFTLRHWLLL

DAT [9] = target: T4, DAT; assay: biochemical; assay type: binding
[10] = target: T5, dopaminergic transporter sites (Mus musculus, UniProt Q61327); assay: In vivo binding of [125I]RTI-121 (displacement in striatum); conditions: mice
T5 construct: Whole brains were rapidly removed and striatum and cerebellum were dissected on ice; from tissue; host or cells: mouse striatum, in vivo occupancy
T5 sequence (Q61327 whole entry): as the sequence (P23977 whole entry) above, with S21P, A57V, A194S, H600R, L619V counted along it
Source text: In vivo binding of [^125I]RTI-121. Each animal received an i.v. injection of 2 μCi of [^125I]RTI-121. Two hours after administration of [^125I]RTI-121, the animals were sacrificed by cervical dislocation. In each mouse, displacement of [^125I]RTI-121 was examined by giving an i.p. injection of one of the displacers at various doses and times relative to sacrifice, Displacement by test drugs at various doses was examined at various times after their injection, with each data point determined in sets of approximately six mice. Whole brains were rapidly removed and striatum and cerebellum were dissected on ice.
Regional radioactivity levels were divided by weight (gram) of the tissue (CPM/tissue weight). Specific binding was calculated as CPM/tissue weight in striatum divided by cerebellum minus 1 (S/C−1), which is based on the observation that dopaminergic transporter sites are highly concentrated in the striatum and relatively absent in the cerebellum. These values were expressed as a percentage of specific binding after vehicle injection. Data were analyzed using two-way analysis of variance (ANOVA), and a post-hoc Tukey's test was used to determine significance of effects for individual doses at different time periods following IP injection of compound 1a (FIG. 3A), 1b (FIG. 3B), MFZ 2-74 (R^1=Me; R^2,3=F; R^4=CO2-^iPr) (FIG. 3C), 15 (FIG. 3D), and 14 (FIG. 3E). […]

NET [11] = target: T3, NET; assay type: binding; conditions: read-out: NET [3H]nisoxetine Ki ± SEM; rat brain membranes; incubation time 1 h
[12] = comparative data taken from Agoston et al. 1997
[13] = ratio of respective Ki values, greater than 1 = DAT selective
[14] = read-out: DAT [3H]WIN 35,428 Ki ± SEM
[15] = rat brain membranes, read-out: M1 [3H]pirenzepine Ki ± SEM

SMILES	Ki (SERT [1]) [nM]	Binding selectivity DAT/SERT (SERT [1]; [13])	Binding selectivity DAT/NET (NET [7]; [13])	Binding selectivity DAT/M1 (muscarinic M1 receptor [2]; [13])	Ki (DAT [9]; [14]) [nM]	Ki (muscarinic M1 receptor [2]; [15]) [nM]	other results
CN1[C@@H]2CC[C@H]1[C@H](COC(=O)CCCc1ccc([N+](=O)[O-])cc1)[C@@H](OC(c1ccc(F)cc1)c1ccc(F)cc1)C2 [Compound 7, S-(+)-2β-{[4-(4′-Nitrophenyl)butyryl]oxymethyl}-3α-[bis(4-fluorophenyl)methoxy]tropane]	3780 ± 390						Ki (muscarinic M1 receptor [2]): 708 ± 102 nM
C=CCN1[C@@H]2CC[C@H]1C[C@@H](OC(c1ccc(F)cc1)c1ccc(F)cc1)C2 [Compound 13]		324	178	20			Ki (muscarinic M1 receptor [3]; [12]): 177 ± 21.1 nM; Effect (of a 50% effective nicotine dose after pretreatment) [4]: 22.4%; Ki (SERT [5]; [12]): 2850 ± 62.5 nM; Ki (NET [6]): 1570 ± 242 nM; Ki (DAT [8]; read-out: DAT [3H]WIN 35,428 Ki ± SEM; comparative data taken from Agoston et al. 1997; cited from earlier work): 8.79 ± 0.52 nM
CN1C2CCC1[C@@H](COC(=O)CCCc1ccc(N)cc1)[C@@H](OC(c1ccc(F)cc1)c1ccc(F)cc1)C2 (stereo partly drawn) [Compound 8, S-(−)-2β-{[4-(4′-Aminophenyl)butyryl]oxymethyl}-3α-[bis(4-fluorophenyl)methoxy]tropane]	1390 ± 145			reduced DAT/M1 selectivity	27.6 ± 0.85	342 ± 33.7	Binding selectivity DAT/SERT (SERT [1]): 50; Binding selectivity DAT/NET (NET [7]): 16; Binding selectivity DAT/M1 (muscarinic M1 receptor [2]): 12
CN1C2CCC1[C@@H](CO)[C@@H](OC(c1ccc(F)cc1)c1ccc(F)cc1)C2 (stereo partly drawn) [Compound 2, S-(+)-2β-hydroxymethyl-3α-[bis(4-fluorophenyl)methoxy]tropane]	910 ± 65	258	279	31		109 ± 15.1	Ki (DAT [9]): 3.52 ± 0.42 nM
CC(C)OC(=O)C1C(OC(c2ccc(F)cc2)c2ccc(F)cc2)CC2CCC1N2C (stereo not shown) [MFZ 2-74]							Time of maximal displacement of [125I]RTI-121 after injection ([10]; IP injection of displacer, striatum vs cerebellum, FIG. 3): not obtained; Time at which maximal displacement of [125I]RTI-121 would likely be obtained ([10]; IP injection, FIG. 3C, maximal displacement not obtained in the test): > 3 h
COC(=O)CC[C@@H]1C2CCC(C[C@@H]1OC(c1ccc(F)cc1)c1ccc(F)cc1)N2C (stereo partly drawn) [Compound 6, S-(+)-2β-(2′-(Methoxycarbonyl)ethyl)-3α-[bis(4-fluorophenyl)methoxy]tropane]	1070 ± 118	286	121	831	3.74	3110 ± 435	
CCCCN1[C@@H]2CC[C@H]1C[C@@H](OC(c1ccc(F)cc1)c1ccc(F)cc1)C2 [Compound 12]		139	153	41			Ki (muscarinic M1 receptor [3]): 399 ± 26.8 nM; Effect (of a 50% effective nicotine dose after pretreatment) [4]: 2.67%; Ki (SERT [5]): 1350 ± 151 nM; Ki (NET [6]): 1490 ± 190 nM; Ki (DAT [8]; comparative data taken from Agoston et al. 1997; read-out: DAT [3H]WIN 35,428 Ki ± SEM; cited from earlier work): 9.7 ± 0.91 nM
C=C[C@@H]1C2CCC(C[C@@H]1OC(c1ccc(F)cc1)c1ccc(F)cc1)N2C (stereo partly drawn) [Compound 4, S-(+)-2β-Ethenyl-3α-[bis(4-fluorophenyl)methoxy]tropane]	1790 ± 114	989	261	90	1.81	163 ± 23.1	
CCOC(=O)[C@@H]1C2CCC(C[C@@H]1OC(c1ccc(F)cc1)c1ccc(F)cc1)N2C (stereo partly shown) [Compound 1b]	1850 ± 270	269	91	275	6.87 ± 0.33	1890 ± 132	Ki (NET [11]): 629 ± 31 nM
C=CCN1C2CCC1[C@@H](C(=O)OCC)[C@@H](OC(c1ccc(F)cc1)c1ccc(F)cc1)C2 (stereo partly drawn) [Compound 11, S-(+)-N-Allyl-2β-carboethoxy-3α-[bis(4-fluorophenyl)methoxy]tropane]	2280 ± 125	207	85	1036	11 ± 0.94	11400 ± 1650	
CCCCN1C2CCC1[C@@H](C(=O)OCC)[C@@H](OC(c1ccc(F)cc1)c1ccc(F)cc1)C2 (stereo partly drawn) [Compound 10, S-(+)-N-Butyl-2β-carboethoxy-3α-[bis(4-fluorophenyl)methoxy]tropane]	2500 ± 327	305	71	391	8.18 ± 0.17	3200 ± 298	
COC(=O)C1C(OC(c2ccc(Cl)cc2)c2ccc(Cl)cc2)CC2CCC1N2C (racemic) [(±)-14]							Ki (DAT [9]; read-out: DAT binding Ki): 23.4 ± 1.5 nM
CCOC(=O)[C@@H]1C2CCC(C[C@@H]1OC(c1ccc(F)cc1)c1ccc(F)cc1)N2 (stereo partly drawn) [Compound 9, S-(+)-N-nor-2β-Carboethoxy-3α-[bis(4-fluorophenyl)methoxy]tropane]	2150 ± 222	242	63		8.87 ± 1.02	17100 ± 2480	
CCOC(=O)C1C(OC(c2ccc(Cl)cc2)c2ccc(Cl)cc2)CC2CCC1N2C (racemic) [(±)-15]							Ki (DAT [9]; read-out: DAT binding Ki): 22 ± 0.84 nM
COC(=O)/C=C/[C@@H]1C2CCC(C[C@@H]1OC(c1ccc(F)cc1)c1ccc(F)cc1)N2C (stereo partly drawn) [Compound 5, S-(+)-2β-(2′-(methoxycarbonyl)eth-1′-enyl)-3α-[bis(4-fluorophenyl)methoxy]tropane]	572 ± 51	115	54	278	4.69 ± 0.6	1380 ± 81	Ki (DAT [9]): 4.96 nM
COC(=O)[C@@H]1C2CCC(C[C@@H]1OC(c1ccc(F)cc1)c1ccc(F)cc1)N2C (stereo partly shown) [Compound 1a]	689 ± 58.4	234	91	45	2.94	133 ± 4.16	Ki (NET [11]): 269 nM
